The record followed here is patent US20100113460A1, “Organic Compounds” (Givaudan SA, priority 2007, published 2010).

Read-outs that look alike come from different tables or passages of the source.

In one data set the target is T1, CYP2A6 (Homo sapiens, UniProt P11509).
T1 construct: purchased BD Biosciences Gentest, USA
T1 sequence (P11509 1-494): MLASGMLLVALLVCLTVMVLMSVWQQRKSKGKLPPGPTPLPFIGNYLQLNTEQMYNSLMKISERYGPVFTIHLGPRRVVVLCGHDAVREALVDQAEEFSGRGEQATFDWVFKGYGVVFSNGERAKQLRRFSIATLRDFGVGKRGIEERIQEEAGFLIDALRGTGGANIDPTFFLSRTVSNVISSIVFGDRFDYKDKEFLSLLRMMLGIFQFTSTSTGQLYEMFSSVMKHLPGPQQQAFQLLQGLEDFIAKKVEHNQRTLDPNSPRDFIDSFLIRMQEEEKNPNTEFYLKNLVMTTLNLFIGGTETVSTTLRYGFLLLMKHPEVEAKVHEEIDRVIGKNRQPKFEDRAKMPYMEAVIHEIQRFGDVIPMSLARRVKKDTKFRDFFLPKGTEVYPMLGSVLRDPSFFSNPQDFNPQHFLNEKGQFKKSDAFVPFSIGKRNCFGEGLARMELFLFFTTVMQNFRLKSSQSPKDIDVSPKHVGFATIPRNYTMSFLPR
Nature of the data set: CYP2A6 inhibition, coumarin to Umbelliferone fluorescence assay in microsomes. Format: biochemical. The following applies: substrate coumarin 0.003 mM, 60 min at 37° C.; read-out: CYP2A6 inhibitor activity IC50. As to the method: Test compounds that inhibit the activity of CYP2A6 are identified by using the same principle as described in Example 28, first paragraph.
A test compound (details see list below) was incubated with CYP2A6 in the presence of a cytochrome P450 reductase. CYP2A6 and P450 reductase were employed in form of microsomes (BD Biosciences Gentest, USA). Microsomes were used which contained 2 pmoles CYP2A6 and an amount of NADPH-P450 reductase corresponding to cytochrome c reductase activity of 87 nmole/(min×mg protein). […] The concentration of the standard substrate coumarin was 0.003 mM.
The samples were analysed spectrofluorometrically according to the procedure described in Example 28.

For another data set, the target named is T2, Human CYP2B6 (Homo sapiens, UniProt P20813).
T2 construct: made in house; host or cells: Sf9 insect cells, recombinant baculoviruses (coexpression)
T2 sequence (P20813 1-491): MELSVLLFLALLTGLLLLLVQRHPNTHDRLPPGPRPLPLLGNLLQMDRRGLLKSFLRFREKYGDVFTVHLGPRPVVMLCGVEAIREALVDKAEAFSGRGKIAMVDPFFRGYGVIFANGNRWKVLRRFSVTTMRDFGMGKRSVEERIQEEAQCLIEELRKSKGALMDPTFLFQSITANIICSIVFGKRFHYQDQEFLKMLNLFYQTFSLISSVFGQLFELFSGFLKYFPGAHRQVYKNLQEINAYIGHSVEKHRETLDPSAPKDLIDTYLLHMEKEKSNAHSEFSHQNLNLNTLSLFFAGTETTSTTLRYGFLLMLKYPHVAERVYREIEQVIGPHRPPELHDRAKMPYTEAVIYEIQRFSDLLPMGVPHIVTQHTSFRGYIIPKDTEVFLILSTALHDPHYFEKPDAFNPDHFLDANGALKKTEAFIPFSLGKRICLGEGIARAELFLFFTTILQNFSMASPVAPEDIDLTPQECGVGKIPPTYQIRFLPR
Nature of the data set: Inhibition of human CYP2B6, 7-ethoxy-4-trifluoromethyl-coumarin fluorescence assay in microsomes. Type of data set: biochemical. The note with it: substrate 7-ethoxy-4-trifluoromethyl-coumarin 6 μM, 40 min at 37° C.; read-out: CYP2B6 inhibitor activity IC50. As to the method: Test compounds that inhibit the activity of CYP2B6 are identified by using the same principle as described in Example 28, first paragraph.
A test compound (details see Table 3) was incubated with CYP2B6 in the presence of a cytochrome P450 reductase. CYP2B6 and P450 reductase are produced using recombinant baculoviruses and co-expressing the two proteins in Sf9 insect cells as described in Example 28. Alternatively, microsomes containing CYP2B6 and the reductase are commercially available (BD Biosciences Gentest, USA). Microsomes were used which contained 1.5 pmoles CYP2B6. Potassium phosphate buffer final concentration was 100 mM, (1M stock, pH 7.4). […] The concentration of the standard substrate 7-ethoxy-4-trifluoromethyl-coumarin was 6 μM. […] The samples were incubated for 40 min at 37° C.

In another data set the target is T3, CYP2A13 (Homo sapiens, UniProt Q16696).
T3 sequence (Q16696 1-494): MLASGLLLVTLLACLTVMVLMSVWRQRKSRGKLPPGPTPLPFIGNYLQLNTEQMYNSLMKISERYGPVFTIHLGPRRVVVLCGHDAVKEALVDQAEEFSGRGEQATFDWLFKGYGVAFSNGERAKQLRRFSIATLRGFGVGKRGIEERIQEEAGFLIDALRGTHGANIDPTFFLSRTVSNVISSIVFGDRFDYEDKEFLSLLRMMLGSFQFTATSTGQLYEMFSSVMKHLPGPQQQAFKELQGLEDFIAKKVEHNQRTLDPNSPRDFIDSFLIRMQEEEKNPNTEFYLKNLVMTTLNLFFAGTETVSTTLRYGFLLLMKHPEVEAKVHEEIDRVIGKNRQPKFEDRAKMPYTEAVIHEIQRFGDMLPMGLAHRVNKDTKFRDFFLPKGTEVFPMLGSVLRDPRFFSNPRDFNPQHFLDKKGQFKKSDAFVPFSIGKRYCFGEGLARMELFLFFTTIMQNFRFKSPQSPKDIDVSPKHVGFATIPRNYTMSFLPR
Nature of the data set: CYP2A13 inhibition, coumarin to 7-hydroxy-coumarin (Umbelliferone) fluorescence assay in microsomes.

Method for CYP2A13: Compounds that inhibit the activity of CYP2A13 are identified by using a standard reaction established for the enzyme. A known substrate is coumarin, and the product of the enzymatic reaction is 7-hydroxy-coumarin (Umbelliferone) which is strongly fluorescent. When a compound is added to the standard reaction and the formation of Umbelliferone is decreased, the compound is identified as an inhibitor, which can also be a competitive substrate of the enzyme. The compound is used at various concentrations and the concentration-dependent decrease in Umbelliferone formation allows to determine the concentration where the activity of the enzyme is reduced to the 50% level (IC50 value).
A test compound (details see Table 1) was incubated with CYP2A13 in the presence of a cytochrome P450 reductase. CYP2A13 and P450 reductase were employed in form of microsomes. […] Preferably, the two enzymes are coexpressed in the same insect cells and microsomes prepared which contain both enzymes. […] An MOI of 4 for recombinant CYP2A13 baculovirus combined with an MOI of 3.5 for recombinant P450 reductase baculovirus routinely produced microsomes with considerable activity.
Microsomes were used which contained 7 pmoles CYP2A13. […] The concentration of the standard substrate coumarin was 0.006 mM. […] The mixture was incubated for 10 min at 37° C. prior to the initiation of the enzymatic reaction by the addition of 0.005 ml of a solution of 50 mM NADPH in water. The final total volume was 0.2 ml, which is suitable for microtiter plate measurements. The samples were incubated for 60 min at 37° C. After 60 min, the enzymatic reaction was stopped by the addition of 0.02 ml cold 50% trichloroacetic acid (TCA) and incubated at 4° C. for 15 min. 0.005 ml of a solution of 50 mM NADPH in water was added to the control reaction which corresponds to the reaction without test compound and without NADPH, and as a consequence, no Umbelliferone was formed. Denatured proteins and other insoluble parts were separated by centrifugation (10 min, 560×g, room-temperature).
The samples were analysed spectrofluorometrically which allows to detect the formation of Umbelliferone as the enzymatic product of coumarin at an excitation wavelength of 340 nm and an emission wavelength of 480 nm.

As for `CC/C=C\CCn1ccnc1` [Compound ID 23, (Z)-1-(hex-3-enyl)-1H-imidazole], the values for the half-maximal inhibitory concentration (IC50) on CYP2A6, at Human CYP2B6 and on CYP2A13 were 7 µM, 2.2 µM and 3.4 µM, respectively.

As to `CCCCCCn1ccnc1` [Compound ID 16, 1-hexyl-1H-imidazole], the half-maximal inhibitory concentration (IC50) was 0.6 µM at Human CYP2B6 and 2.1 µM on CYP2A13 (read-out: CYP2A13 inhibitor activity IC50, substrate coumarin 0.006 mM, 60 min at 37° C.).

Consider `C=CCCCCCc1cnccn1` [Compound ID 57, 2-(hept-6-enyl)pyrazine], for which the results for the IC50 at Human CYP2B6 and against CYP2A13 were 0.6 µM and 10.2 µM, respectively.

On to `C=CCCCCn1ccnc1` [Compound ID 41, 1-(hex-5-enyl)-1H-imidazole], for which the values for the IC50 on Human CYP2B6 and against CYP2A13 were 1.9 µM and 5.9 µM, respectively.

For `c1nc2c(o1)CCCCCCCCCC2` [Compound ID 15, 4,5,6,7,8,9,10,11,12,13-decahydrocyclododeca[d]oxazole], the IC50 came out at 53 µM on CYP2A6, 5.4 µM at Human CYP2B6 and 2 µM against CYP2A13.

Turning to `CC(C)=CCC/C(C)=C\Cn1ccnc1` [Compound ID 44, 1-(3,7-dimethylocta-2,6-dienyl)-1H-imidazole], the values for the IC50 on CYP2A6, at Human CYP2B6 and on CYP2A13 were 6 µM, 0.1 µM and 6.4 µM, respectively.

`c1ncc2c(n1)CCCCCCCCCC2` [Compound ID 1, 5,6,7,8,9,10,11,12,13,14-decahydrocyclododeca[d]pyrimidine]: the values for the IC50 on CYP2A6, on Human CYP2B6 and against CYP2A13 were 9 µM, 2.7 µM and 0.3 µM, respectively.
